# Laboratory results as given in patent publication US8263656B2 (Hoffmann-La Roche Inc., priority 2008, dated 2012).
# Biological target: T1, human CRTH2 (Homo sapiens, UniProt Q9Y5Y4)
# T1 construct: expressed in transfected cells
# T1 sequence (Q9Y5Y4 1-395): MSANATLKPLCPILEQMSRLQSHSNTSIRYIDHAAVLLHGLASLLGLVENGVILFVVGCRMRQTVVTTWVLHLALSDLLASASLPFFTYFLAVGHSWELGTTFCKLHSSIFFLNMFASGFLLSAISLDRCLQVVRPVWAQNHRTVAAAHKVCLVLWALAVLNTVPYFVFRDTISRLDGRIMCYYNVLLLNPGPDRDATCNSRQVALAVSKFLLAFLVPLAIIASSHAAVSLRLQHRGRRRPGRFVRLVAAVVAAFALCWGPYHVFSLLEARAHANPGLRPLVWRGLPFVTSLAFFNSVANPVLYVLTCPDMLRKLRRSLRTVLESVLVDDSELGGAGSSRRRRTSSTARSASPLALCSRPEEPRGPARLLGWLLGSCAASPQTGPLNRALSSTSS
# Experiment: Human CRTH2 Receptor Binding Assay (whole cell, [3H]ramatroban competition)
# Settings: CHO-K1 cells expressing human CRTH2 and G-alpha16; 20 nM [3H]ramatroban; 1 hour, room temperature
# Excerpt: A whole cell receptor binding assay using [^3H]ramatroban as the competing radioactive ligand was employed to evaluate the compound binding activity to human CRTH2. The radioactive ligand [^3H]ramatroban was synthesized according to Sugimoto et. al. (Eur. J. Pharmacol. 524, 30-37, 2005) to a specific activity of 42 Ci/mmol.
# A cell line stably expressing human CRTH2 was established by transfecting CHO-K1 cells with two mammalian expression vectors that harbored human CRTH2 and G-alpha16 cDNAs, respectively, using FuGene® 6 transfection reagent (from Roche). Stable clones expressing CRTH2 were selected by staining each clone with BM16 (BD Pharmingen™ from BD Biosciences, a division of Becton, Dickinson and Company), which is a rat monoclonal antibody to human CRTH2. The cells were maintained as monolayer cultures in Ham's F-12 medium containing 10% fetal bovine serum, 100 units/mL penicillin, […] streptomycin, 2 mM glutamine, 0.5 mg/mL G418 (geneticin) for CRTH2, and 0.2 mg/mL hygromycin-B (for G-alpha 16). For whole cell receptor binding assay, the monolayer cells were rinsed once with PBS (phosphate buffered saline), dissociated using diammonium ethylenediaminetetraacetate (Versene™ EDTA from the Dow Chemical Company), and suspended in PBS containing 10 mM MgCl2 and 0.06% BSA (bovine serum albumin) at 1.5×10^6 cells/mL.
# The binding reactions (0.2 mL) were performed in 96-well plates at room temperature in PBS containing 1.5×10^5 cells, 10 mM MgCl2, 0.06% BSA, 20 nM [^3H]ramatroban, and test compound at various concentrations. After 1 hour of binding reactions, the cells were harvested on GF™/B filter microplates (microtiter plates with embedded glass fiber from PerkinElmer, Inc.) and washed 5 times with PBS using a Filtermate™ Harvester (a cell harvester that harvests and washes cells from microplates from PerkinElmer, Inc.). The radioactivities bound to the cells were determined using a microplate scintillation counter (TopCount® NXT, from PerkinElmer, Inc.) after adding 50 μL of Microscint™ 20 scintillation fluid (from PerkinElmer, Inc.) to each well of the filter plates. The radioactivity from non-specific binding was determined by replacing compound with 10 μM of 15(R)-15-methyl PGD2 (from Cayman Chemical Company) in the reaction mixtures. The radioactivity bound to the cells in the absence of compound (total binding) was determined by replacing compound with 0.25% of DMSO (dimethyl sulfoxide) in the reaction mixture. Specific binding data were obtained by subtracting the radioactivity of non-specific binding from each binding data.
# The IC50 value is defined as the concentration of the tested compound that is required for 50% inhibition of total specific binding. In order to calculate the IC50 value, the percent inhibition data were determined for 7 concentrations for each compound. The percent inhibition for a compound at each concentration was calculated according to the following formula, [1-(specific binding in the presence of compound)/(total specific binding)]×100. The IC50 value was then obtained by fitting the percent inhibition data to a sigmoidal dose-response (4 parameter logistic) model in the XLfit® software Excel add-in program [from ID Business Solutions Ltd., model 205, where F(x)=(A+(B−A)/(1+((C/x)^D)))].
row,SMILES,IC50 [nM]
1,"O=C(O)COc1cc(F)cc2c1CCCC2NS(=O)(=O)c1cc(Br)cc(C(F)(F)F)c1 (centres unmarked) [Example 1-28, [5-(3-Bromo-5-trifluoromethyl-benzenesulfonyl-amino)-3-fluoro-5,6,7,8-tetrahydro-naphthalen-1-yloxy]-acetic acid]",4.2
2,"O=C(O)COc1c(F)c(F)cc2c1CCCC2NS(=O)(=O)c1cc(Br)cc(C(F)(F)F)c1 (centres unmarked) [Example 1-29, [5-(3-Bromo-5-trifluoromethyl-benzenesulfonyl-amino)-2,3-difluoro-5,6,7,8-tetrahydro-naphthalen-1-yloxy]-acetic acid]",18.2
3,"O=C(O)COc1c(F)c(F)cc2c1CCCC2NS(=O)(=O)c1ccc(Cl)cc1Cl (centres unmarked) [Example 1-30, [5-(2,4-Dichloro-benzenesulfonyl-amino)-2,3-difluoro-5,6,7,8-tetrahydro-naphthalen-1-yloxy]-acetic acid]",46.1
4,"O=C(O)COc1cc(F)cc2c1CCCC2NS(=O)(=O)c1ccc(Cl)cc1Cl (centres unmarked) [Example 1-31, [5-(2,4-Dichloro-benzenesulfonyl-amino)-3-fluoro-5,6,7,8-tetrahydro-naphthalen-1-yloxy]-acetic acid]",154
5,"O=C(O)COc1c(F)c(F)cc2c1CCCC2NS(=O)(=O)c1cc(Cl)ccc1Cl (centres unmarked) [Example 1-32, [5-(2,5-Dichloro-benzenesulfonyl-amino)-2,3-difluoro-5,6,7,8-tetrahydro-naphthalen-1-yloxy]-acetic acid]",269
6,"O=C(O)COc1cc(F)cc2c1CCCC2NS(=O)(=O)c1cc(Cl)ccc1Cl (centres unmarked) [Example 1-33, [5-(2,5-Dichloro-benzenesulfonyl-amino)-3-fluoro-5,6,7,8-tetrahydro-naphthalen-1-yloxy]-acetic acid]",81
7,"CC(C)c1cccc(-c2ccc(S(=O)(=O)NC3CCCc4c3cc(F)c(F)c4OCC(=O)O)nc2)c1 (centres unmarked) [Example 1-34, {2,3-Difluoro-5-[5-(3-isopropyl-phenyl)-pyridine-2-sulfonylamino]-5,6,7,8-tetrahydro-naphthalen-1-yloxy}-acetic acid]",8.6
8,"CC(C)c1cccc(-c2ccc(S(=O)(=O)NC3CCCc4c(OCC(=O)O)cc(F)cc43)nc2)c1 (centres unmarked) [Example 1-35, {3-Fluoro-5-[5-(3-isopropyl-phenyl)-pyridine-2-sulfonylamino]-5,6,7,8-tetrahydro-naphthalen-1-yloxy}-acetic acid]",7
9,"CC(C)c1cccc(-c2ccc(S(=O)(=O)NC3CCCc4c(OCC(=O)O)cc(Cl)cc43)nc2)c1 (centres unmarked) [Example 1-36, {3-Chloro-5-[5-(3-isopropyl-phenyl)-pyridine-2-sulfonylamino]-5,6,7,8-tetrahydro-naphthalen-1-yloxy}-acetic acid]",4.5
10,"O=C(O)COc1cc(Br)cc2c1CCC[C@H]2NS(=O)(=O)c1cc(Br)cc(C(F)(F)F)c1 [Example 1-37, [(R)-3-Bromo-5-(3-bromo-5-trifluoromethyl-benzenesulfonyl-amino)-5,6,7,8-tetrahydro-naphthalen-1-yloxy]-acetic acid]",2.8
11,"O=C(O)COc1c(F)c(Cl)cc2c1CCC[C@H]2NS(=O)(=O)c1cc(F)cc(C(F)(F)F)c1 [Example 1-38, [(R)-3-Chloro-2-fluoro-5-(3-fluoro-5-trifluoromethyl-benzenesulfonyl-amino)-5,6,7,8-tetrahydro-naphthalen-1-yloxy]-acetic acid]",3.4
12,"O=C(O)COc1c(F)c(Cl)cc2c1CCC[C@H]2NS(=O)(=O)c1cc(Br)cc(C(F)(F)F)c1 [Example 1-39, [(R)-5-(3-Bromo-5-trifluoromethyl-benzenesulfonyl-amino)-3-chloro-2-fluoro-5,6,7,8-tetrahydro-naphthalen-1-yloxy]-acetic acid]",2.6
13,"O=C(O)COc1c(F)c(Cl)cc2c1CCC[C@H]2NS(=O)(=O)c1ccc(Cl)cc1Cl [Example 1-40, [(R)-3-Chloro-5-(2,4-dichloro-benzenesulfonyl-amino)-2-fluoro-5,6,7,8-tetrahydro-naphthalen-1-yloxy]-acetic acid]",6.3
14,"O=C(O)COc1cc(Cl)cc2c1CCC[C@H]2NS(=O)(=O)c1cc(F)cc(C(F)(F)F)c1 [Example 1-41, [(R)-3-Chloro-5-(3-fluoro-5-trifluoromethyl-benzenesulfonyl-amino)-5,6,7,8-tetrahydro-naphthalen-1-yloxy]-acetic acid]",3.4
15,"O=C(O)COc1cc(Cl)cc2c1CCC[C@H]2NS(=O)(=O)c1cc(Br)cc(C(F)(F)F)c1 [Example 1-42, [(R)-5-(3-Bromo-5-trifluoromethyl-benzenesulfonyl-amino)-3-chloro-5,6,7,8-tetrahydro-naphthalen-1-yloxy]-acetic acid]",3.2
16,"O=C(O)COc1cc(Cl)cc2c1CCC[C@H]2NS(=O)(=O)c1cc(Cl)ccc1Cl [Example 1-43, [(R)-3-Chloro-5-(2,5-dichloro-benzenesulfonyl-amino)-5,6,7,8-tetrahydro-naphthalen-1-yloxy]-acetic acid]",10.9
17,"CC(C)c1cccc(-c2ccc(S(=O)(=O)NC3CCCc4c3cc(Cl)c(F)c4OCC(=O)O)nc2)c1 (centres unmarked) [Example 1-44, {3-Chloro-2-fluoro-5-[5-(3-isopropyl-phenyl)-pyridine-2-sulfonylamino]-5,6,7,8-tetrahydro-naphthalen-1-yloxy}-acetic acid]",16.4
18,"CN(C1CCCc2c1cc(Cl)c(F)c2OCC(=O)O)S(=O)(=O)c1cc(C(F)(F)F)cc(C(F)(F)F)c1 (centres unmarked) [Example 2-1, {5-[(3,5-Bis-trifluoromethyl-benzenesulfonyl)-methyl-amino]-3-chloro-2-fluoro-5,6,7,8-tetrahydro-naphthalen-1-yloxy}-acetic acid]",8
19,"CN(C1CCCc2c(OCC(=O)O)cc(Cl)cc21)S(=O)(=O)c1cc(C(F)(F)F)cc(C(F)(F)F)c1 (centres unmarked) [Example 2-4, {5-[(3,5-Bis-trifluoromethyl-benzenesulfonyl)-methyl-amino]-3-chloro-5,6,7,8-tetrahydro-naphthalen-1-yloxy}-acetic acid]",8.3
20,"CN([C@@H]1CCCc2c(OCC(=O)O)cc(Cl)cc21)S(=O)(=O)c1cc(C(F)(F)F)cc(C(F)(F)F)c1 [Example 2-5, {(R)-5-[(3,5-Bis-trifluoromethyl-benzenesulfonyl)-methyl-amino]-3-chloro-5,6,7,8-tetrahydro-naphthalen-1-yloxy}-acetic acid]",5.9
21,"CN(C1CCCc2c(OCC(=O)O)cc(Cl)cc21)S(=O)(=O)c1ccc(Cl)cc1Cl (centres unmarked) [Example 2-6, {3-Chloro-5-[(2,4-dichloro-benzenesulfonyl)-methyl-amino]-5,6,7,8-tetrahydro-naphthalen-1-yloxy}-acetic acid]",92.9
22,"CN(C1CCCc2c1cc(Cl)c(Cl)c2OCC(=O)O)S(=O)(=O)c1cc(C(F)(F)F)cc(C(F)(F)F)c1 (centres unmarked) [Example 2-7, {5-[(3,5-Bis-trifluoromethyl-benzenesulfonyl)-methyl-amino]-2,3-dichloro-5,6,7,8-tetrahydro-naphthalen-1-yloxy}-acetic acid]",333
23,"Cc1c(Cl)cc2c(c1OCC(=O)O)CCCC2N(C)S(=O)(=O)c1cc(C(F)(F)F)cc(C(F)(F)F)c1 (centres unmarked) [Example 2-8, {5-[(3,5-Bis-trifluoromethyl-benzenesulfonyl)-methyl-amino]-3-chloro-2-methyl-5,6,7,8-tetrahydro-naphthalen-1-yloxy}-acetic acid]",638
